Measurements as given in PMC11191095, “QSAR Reveals Decreased Lipophilicity of Polar Residues Determines the Selectivity of Antimicrobial Peptide Activity” (ACS Omega, 2024).
Where a SMILES comes first, the peptide text is derived from it.

Assays:
E. coli LEC001 = test: microbe, parasite or virus in culture; type: cell-based, Escherichia coli; details: E. coli LEC001 (R); shown in µM
Summary of the method: (§1)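 Peptides 128→2 μg/mL, 2-fold series; inoculum ~5 × 10^5 CFU/mL from overnight culture (OD600 0.01, mixed 1:1). MHB non-cation-adjusted for bacteria, RPMI 1640 + 2% glucose for fungi. 37 °C, 20 h, OD600. MIC50/MIC90 at 50%/90% inhibition; n ≥ 3.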

E. coli NCTC 12923 = test: microbe, parasite or virus in culture; type: cell-based, Escherichia coli; details: E. coli NCTC 12923 (S); shown in µM
Summary of the method: as §1

P. aeruginosa NCTC 13437 = test: microbe, parasite or virus in culture; type: cell-based, Pseudomonas aeruginosa; details: P. aeruginosa NCTC 13437 (R); shown in µM
Summary of the method: as §1

P. aeruginosa PAO1 = test: microbe, parasite or virus in culture; type: cell-based, Pseudomonas aeruginosa; details: P. aeruginosa PAO1 (S)
Summary of the method: as §1

A. baumannii ATCC 17978 = test: microbe, parasite or virus in culture; type: cell-based, Acinetobacter baumannii; details: A. baumannii ATCC 17978 (S); shown in µM
Summary of the method: as §1

A. baumannii AYE = test: microbe, parasite or virus in culture; type: cell-based, Acinetobacter baumannii; details: A. baumannii AYE (R); shown in µM
Summary of the method: as §1

K. pneumoniae M6 = test: microbe, parasite or virus in culture; type: cell-based, Klebsiella pneumoniae; details: K. pneumoniae M6 (S); shown in µM
Summary of the method: as §1

K. pneumoniae NCTC 13368 = test: microbe, parasite or virus in culture; type: cell-based, Klebsiella pneumoniae; details: K. pneumoniae NCTC 13368 (R); shown in µM
Summary of the method: as §1

S. aureus (MRSA) 1199B = test: microbe, parasite or virus in culture; type: cell-based, Staphylococcus aureus; details: S. aureus (MRSA) 1199B (R); shown in µM
Summary of the method: as §1

[1] = tested on: S. aureus (MRSA) NCTC 13616; test: microbe, parasite or virus in culture; type: cell-based, Staphylococcus aureus; details: S. aureus (MRSA) NCTC 13616 (R); shown in µM
Summary of the method: as §1

S. aureus (MRSA) USA300 = test: microbe, parasite or virus in culture; type: cell-based, Staphylococcus aureus; details: S. aureus (MRSA) USA300 (R); shown in µM
Summary of the method: as §1

[2] = tested on: S. aureus (MSSA) ATCC 9144; test: microbe, parasite or virus in culture; type: cell-based, Staphylococcus aureus; details: S. aureus (MSSA) ATCC 9144 (S); shown in µM
Summary of the method: as §1

C. auris TDG 1912 = test: microbe, parasite or virus in culture; type: cell-based, Candida auris; details: C. auris TDG 1912
Summary of the method: as §1

C. albicans NCPF 3281 = test: microbe, parasite or virus in culture; type: cell-based; details: C. albicans NCPF 3281; shown in µM
Summary of the method: as §1

C. glabrata NCPF 8018 = test: microbe, parasite or virus in culture; type: cell-based; details: C. glabrata NCPF 8018
Summary of the method: as §1

C. krusei NCPF 3876 = test: microbe, parasite or virus in culture; type: cell-based; details: C. krusei NCPF 3876; shown in µM
Summary of the method: as §1

[3] = tested on: C. parapsilosis NCPF 3209; test: microbe, parasite or virus in culture; type: cell-based; details: C. parapsilosis NCPF 3209; shown in µM
Summary of the method: as §1

C. tropicalis NCPF 8760 = test: microbe, parasite or virus in culture; type: cell-based; details: C. tropicalis NCPF 8760; shown in µM
Summary of the method: as §1

human erythrocytes = test: In vitro hemolytic activity; type: cell-based; details: human erythrocytes in PBS, 1 h, 37 °C, OD550, from dose response curves
Summary of the method: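 Serial peptide dilutions in PBS mixed 1:1 with fresh erythrocytes, 1 h at 37 °C; supernatant OD550 measured after centrifugation. Hemolysis normalized to 0.1% Triton X-100 (full lysis) and PBS (none); HC10 and HC50 taken from dose–response curves.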

HaCat cell line = test: In vitro HaCat cytotoxicity (MTT); type: cell-based, human; details: 21 h exposure, OD570, relative to untreated control
Description: The HaCat cell line (Cellonex, South Africa) was cultured in Dulbecco’s Modified Eagle Medium (DMEM) supplemented with 10% heat-inactivated fetal calf serum (FCS) and 1% antibiotic-antimycotic (Abs) and maintained at 5–10% CO2, 37 °C, 95% humidity. For cytotoxicity screening, 5.56 × 10^4 cells/mL were plated in a 96-well plate. After 24 h incubation, the cells are initially exposed to each peptide at a concentration of 256 μg/mL or 0.1% Triton-X-100 as the control for 21 h. If cytotoxicity was observed, at a level of significance of p < 0.0001 compared with the untreated control after 21 h, a dose-response assay was undertaken. Cell viability was determined by adding 10% 3-(4,5-dimethyl-2-thiazolyl)-2,5-diphenyl-2H-tetrazolium bromide (MTT) (1 mg/mL), to each well and after a further 3 h incubation the media was discarded, and the formazan crystals dissolved by adding 25% DMSO in ethanol. The absorbance was measured at OD570 by using the FLUOstar Omega multidetection microplate reader (BMG Labtech). Percentage cell viability was calculated relative to the untreated control. The LC50 was defined as the concentration of AMP treatment that results in 50% lethality of HaCat cells and was determined from the dose-response curves.

[4] = MHB, 37 °C, 20 h, OD600, min. three biological repeats
[5] = 50% growth inhibition, RPMI 1640 + 2% glucose, 37 °C, 20 h, OD600
[6] = 90% growth inhibition, RPMI 1640 + 2% glucose, 37 °C, 20 h, OD600

Row | Structure (SMILES) | Modal MIC (E. coli LEC001) [µM] | Modal MIC (E. coli NCTC 12923) [µM] | Modal MIC (P. aeruginosa NCTC 13437) [µM] | Modal MIC (P. aeruginosa PAO1; shown in µM) [µM] | Modal MIC (A. baumannii ATCC 17978) [µM] | Modal MIC (A. baumannii AYE) [µM] | Modal MIC (K. pneumoniae M6) [µM] | Modal MIC (K. pneumoniae NCTC 13368) [µM] | Modal MIC (S. aureus (MRSA) 1199B) [µM] | Modal MIC [1] [µM] | Modal MIC (S. aureus (MRSA) USA300) [µM] | Modal MIC [2] [µM] | Modal MIC50 (C. auris TDG 1912; [5]) [µg/mL] | Modal MIC90 (C. auris TDG 1912; [6]) [µg/mL] | Modal MIC50 (C. auris TDG 1912; shown in µM) [µM] | Modal MIC90 (C. auris TDG 1912; shown in µM) [µM] | Modal MIC50 (C. albicans NCPF 3281) [µM] | Modal MIC90 (C. albicans NCPF 3281) [µM] | Modal MIC50 (C. glabrata NCPF 8018; shown in µM) [µM] | Modal MIC90 (C. glabrata NCPF 8018; shown in µM) [µM] | other results
1 | CC[C@H](C)[C@H](NC(=O)[C@H](CCCCN)NC(=O)[C@H](CCC(=O)O)NC(=O)[C@H](Cc1c[nH]c2ccccc12)NC(=O)[C@H](Cc1ccccc1)NC(=O)[C@H](CCCCN)NC(=O)CNC(=O)[C@H](CC(C)C)NC(=O)[C@H](C)N)C(=O)N[C@@H](CCCCN)C(=O)N[C@@H](CO)C(=O)N[C@@H](CC(C)C)C(=O)N[C@@H](Cc1ccccc1)C(N)=O [A1F5K8-IsCTa] (H-ALGKFWEKIKSLF-NH2) | 5 | 5 | 39.9 | > 79.9 | 2.5 | 5 | 10 | 10 | 5 | 10 | 10 | 2.5 | > 128 | > 128 | > 79.9 | > 79.9 | 39.9 | 39.9 | 39.9 | 79.9 | Modal MIC (P. aeruginosa PAO1; [4]): > 128 µg/mL; Modal MIC50 (C. krusei NCPF 3876): 19.9 µM; Modal MIC90 (C. krusei NCPF 3876): 19.9 µM; Modal MIC50 [3]: 39.8 µM; Modal MIC90 [3]: 39.8 µM; Modal MIC50 (C. tropicalis NCPF 8760): 5 µM; Modal MIC90 (C. tropicalis NCPF 8760): 5 µM; HC10 (concentration causing 10% hemolysis) (human erythrocytes): 102 µg/mL; % HaCat cell death at initial screening (256μg/mL) ± SD (HaCat cell line): 83.6 ±9.2%
2 | CC[C@H](C)[C@H](NC(=O)[C@H](C)NC(=O)[C@H](CCCCN)NC(=O)[C@@H]1CCCN1C(=O)[C@@H](NC(=O)[C@H](CC(C)C)NC(=O)[C@H](CCCCN)NC(=O)[C@H](Cc1ccccc1)NC(=O)[C@H](CC(C)C)NC(=O)[C@@H](N)Cc1ccccc1)[C@@H](C)CC)C(=O)N[C@@H](CCCCN)C(=O)N[C@@H](CCCCN)C(=O)N[C@@H](CC(C)C)C(=O)N[C@H](C(=O)N[C@@H](CO)C(=O)N[C@@H](CCCCN)C(=O)N[C@@H](Cc1ccccc1)C(=O)N[C@@H](CCCCN)C(N)=O)[C@@H](C)CC [AamAP1-Lysa] (H-FLFKLIPKAIKKLISKFK-NH2) | 3.6 | 1.8 | 7.2 | 7.2 | 0.9 | 1.8 | 3.6 | 3.6 | 1.8 | 0.9 | 1.8 | 1.8 | > 128 | > 128 | > 57.8 | > 57.8 | 14.4 | 28.8 | 57.8 | 57.8 | Modal MIC50 (C. krusei NCPF 3876): 7.2 µM; Modal MIC90 (C. krusei NCPF 3876): 7.2 µM; Modal MIC50 [3]: 14.4 µM; Modal MIC90 [3]: 14.4 µM; Modal MIC50 (C. tropicalis NCPF 8760): 0.9 µM; Modal MIC90 (C. tropicalis NCPF 8760): 0.9 µM; HC10 (concentration causing 10% hemolysis) (human erythrocytes): 53 µg/mL; HC50 (concentration causing 50% hemolysis) (human erythrocytes): 256 µg/mL; % HaCat cell death at initial screening (256μg/mL) ± SD (HaCat cell line): 94.8 ± 8.2%
3 | CC[C@H](C)[C@H](NC(=O)[C@H](C)NC(=O)[C@H](CCCCN)NC(=O)[C@@H]1CCCN1C(=O)[C@@H](NC(=O)[C@H](CC(C)C)NC(=O)[C@H](CO)NC(=O)[C@H](Cc1ccccc1)NC(=O)[C@H](CC(C)C)NC(=O)[C@@H](N)Cc1ccccc1)[C@@H](C)CC)C(=O)NCC(=O)NCC(=O)N[C@@H](CC(C)C)C(=O)N[C@H](C(=O)N[C@@H](CO)C(=O)N[C@@H](C)C(=O)N[C@@H](Cc1ccccc1)C(=O)N[C@@H](CCCCN)C(N)=O)[C@@H](C)CC [AamAP-S1a] | 8.1 | 8.1 | 64.8 | > 64.8 | 4.1 | 4.1 | 32.4 | 32.4 | 2 | 4.1 | 4.1 | 2 | > 128 | > 128 | > 64.8 | > 64.8 | 64.8 | 64.8 | > 64.8 | > 64.8 | Modal MIC (P. aeruginosa PAO1; [4]): > 128 µg/mL; Modal MIC50 (C. glabrata NCPF 8018; 50% growth inhibition, RPMI 1640 + 2% glucose, 37 °C, 20 h): > 128 µg/mL; Modal MIC90 (C. glabrata NCPF 8018; 90% growth inhibition, RPMI 1640 + 2% glucose, 37 °C, 20 h): > 128 µg/mL; Modal MIC50 (C. krusei NCPF 3876): 32.4 µM; Modal MIC90 (C. krusei NCPF 3876): 32.4 µM; Modal MIC50 [3]: 64.8 µM; Modal MIC90 [3]: 64.8 µM; Modal MIC50 (C. tropicalis NCPF 8760): 8.1 µM; Modal MIC90 (C. tropicalis NCPF 8760): 8.1 µM; HC10 (concentration causing 10% hemolysis) (human erythrocytes): 45 µg/mL; HC50 (concentration causing 50% hemolysis) (human erythrocytes): 112 µg/mL; HC50 (concentration causing 50% hemolysis) (human erythrocytes; listed as AamAP1-S1a): lower than 256 µg/mL; % HaCat cell death at initial screening (256μg/mL) ± SD (HaCat cell line): 97.6 ±12.6%
